From ChEMBL document CHEMBL1142788, “Synthesis and antibacterial activity of alkyl derivatives of the glycopeptide antibiotic A40926 and their amides” (2005)
In brackets after ≈: the same amount, converted by molar mass.

How the values were obtained:
[1] = system: Enterococcus faecium; assay: Minimum inhibitory concentration against vancomycin-A Enterococcus faecium in the presence of 30% bovine serum (n=1) (range = 0.5>128mg/l); assay type: functional
[2] = system: Enterococcus faecalis; assay: Minimum inhibitory concentration against vancomycin-A Enterococcus faecalis in the presence of 30% bovine serum (n=4) (range = 2-4 mg/L); assay type: functional
[3] = system: Enterococcus faecalis; assay: Minimum inhibitory concentration against vancomycin-sensitive Enterococcus faecalis in the presence of 30% bovine serum(n=3)(range = 0.25-1mg/l); assay type: functional
[4] = system: Staphylococcus epidermidis; assay: Minimum inhibitory concentration against methicillin-sensitive Staphylococcus epidermidis in the presence of 30% bovine serum; assay type: functional
[5] = system: Staphylococcus haemolyticus; assay: Minimum inhibitory concentration against Staphylococcus haemolyticus in the presence of 30% bovine serum; assay type: functional
[6] = system: Staphylococcus epidermidis; assay: Minimum inhibitory concentration against methicillin-resistant Staphylococcus epidermidis in the presence of 30% bovine serum; assay type: functional
[7] = system: Enterococcus faecium; assay: Minimum inhibitory concentration against vancomycin-sensitive Enterococcus faecium in the presence of 30% bovine serum(n=1); assay type: functional
[8] = system: Staphylococcus aureus; assay: Minimum inhibitory concentration against methicillin-resistant Staphylococcus aureus
[9] = system: Enterococcus faecalis; assay: Minimum inhibitory concentration against vancomycin-sensitive Enterococcus faecalis in the presence of 30% bovine serum(n=3)(range = 8-4); assay type: functional
[10] = system: Enterococcus faecalis; assay: Minimum inhibitory concentration against vancomycin-A Enterococcus faecalis in the presence of 30% bovine serum(n=4) (range = 0.125-16mg/L); assay type: functional
[11] = system: Enterococcus faecium; assay: Minimum inhibitory concentration against vancomycin-A Enterococcus faecium in the presence of 30% bovine serum (n=1); assay type: functional
[12] = system: Staphylococcus aureus; assay: Minimum inhibitory concentration against methicillin-sensitive Staphylococcus aureus
[13] = system: Enterococcus faecalis; assay: Minimum inhibitory concentration against vancomycin-sensitive Enterococcus faecalis in the presence of 30% bovine serum(n=3)(range = >=0.125-0.25mg/l); assay type: functional
[14] = system: Enterococcus faecalis; assay: Minimum inhibitory concentration against vancomycin-A Enterococcus faecalis in the presence of 30% bovine serum (n=4); assay type: functional
[15] = system: Enterococcus faecium; assay: Minimum inhibitory concentration against vancomycin-A Enterococcus faecium in the presence of 30% bovine serum (n=1) (128>128mg/L); assay type: functional
[16] = system: Enterococcus faecalis; assay: Minimum inhibitory concentration against vancomycin-sensitive Enterococcus faecalis in the presence of 30% bovine serum (n=3) (range = 0.125-0.5); assay type: functional
[17] = system: Enterococcus faecium; assay: Minimum inhibitory concentration against vancomycin-A Enterococcus faecium in the presence of 30% bovine serum (n=1) (range = 0.125-128mg/l); assay type: functional
[18] = system: Enterococcus faecalis; assay: Minimum inhibitory concentration against vancomycin-A Enterococcus faecalis (n=4) (range = 2-128mg/L)
[19] = system: Enterococcus faecalis; assay: Minimum inhibitory concentration against vancomycin-sensitive Enterococcus faecalis in the presence of 30% bovine serum(n=3)(range = 0.125 - 0.16 mg/l); assay type: functional
[20] = system: Enterococcus faecalis; assay: Minimum inhibitory concentration against vancomycin-A Enterococcus faecalis in the presence of 30% bovine serum (n=4) (Range = 0.125 - 16 mg/L); assay type: functional
[21] = system: Enterococcus faecium; assay: Minimum inhibitory concentration against vancomycin-A Enterococcus faecium in the presence of 30% bovine serum (n=1) (range = 0.125-16mg/l); assay type: functional
[22] = system: Enterococcus faecalis; assay: Minimum inhibitory concentration against vancomycin-sensitive Enterococcus faecalis in the presence of 30% bovine serum (n=3); assay type: functional
[23] = system: Enterococcus faecalis; assay: Minimum inhibitory concentration against vancomycin-A Enterococcus faecalis (n=4) (range = 0.25-8mg/L)
[24] = system: Enterococcus faecium; assay: Minimum inhibitory concentration against vancomycin-A Enterococcus faecium in the presence of 30% bovine serum (n=1) (range = 2-64mg/L); assay type: functional
[25] = system: Enterococcus faecalis; assay: Minimum inhibitory concentration against vancomycin-sensitive Enterococcus faecalis in the presence of 30% bovine serum(n=3)(range =0.125-0.25 mg/l); assay type: functional
[26] = system: Enterococcus faecalis; assay: Minimum inhibitory concentration against vancomycin-sensitive Enterococcus faecalis in the presence of 30% bovine serum(n=3)(range = 0.125-0.5mg/l); assay type: functional
[27] = system: Enterococcus faecium; assay: Minimum inhibitory concentration against vancomycin-sensitive Enterococcus faecium in the presence of 30% bovine serum(n=1) (range = 1-8 mg/l); assay type: functional
[28] = system: Enterococcus faecium; assay: Minimum inhibitory concentration against vancomycin-A Enterococcus faecium in the presence of 30% bovine serum (n=1) (range = 2>128); assay type: functional
[29] = system: Staphylococcus aureus; assay: Minimum inhibitory concentration against methicillin-sensitive Staphylococcus aureus without serum
[30] = system: Enterococcus faecalis; assay: Minimum inhibitory concentration against vancomycin-A Enterococcus faecalis (n=4) (Range = 1 - 8 mg/L)
[31] = system: Enterococcus faecium; assay: Minimum inhibitory concentration against vancomycin-A Enterococcus faecium in the presence of 30% bovine serum (n=1) (range = 64>128mg/L); assay type: functional
[32] = system: Enterococcus faecalis; assay: Minimum inhibitory concentration against vancomycin-sensitive Enterococcus faecalis in the presence of 30% bovine serum(n=3)(range = 1-2mg/l); assay type: functional
[33] = system: Enterococcus faecalis; assay: Minimum inhibitory concentration against vancomycin-A Enterococcus faecalis in the presence of 30% bovine serum(n=4) (128 >128mg/L); assay type: functional
[34] = system: Enterococcus faecium; assay: Minimum inhibitory concentration against vancomycin-A Enterococcus faecium in the presence of 30% bovine serum (n=1) (range = 816 mg/L); assay type: functional

Row | Structure (SMILES) | MIC [4] [µg/mL] | MIC [5] [µg/mL] | MIC [6] [µg/mL] | MIC [7] [µg/mL] | MIC [8] [µg/mL] | MIC [12] [µg/mL] | other results
1 | CCCCc1ccc(CNC2[C@H](Oc3c4cc5cc3Oc3ccc(cc3Cl)[C@@H](O)C3NC(=O)[C@H](NC(=O)[C@@H]5NC(=O)[C@H]5NC(=O)[C@@H](Cc6ccc(cc6)O4)NC(=O)[C@H](N(C)Cc4ccc(CCCC)cc4)c4ccc(O)c(c4)Oc4cc(O)c(Cl)c5c4)c4ccc(O)c(c4)-c4c(O[C@H]5O[C@H](CO)[C@@H](O)[C@H](O)[C@@H]5O)cc(O)cc4[C@@H](C(=O)O)NC3=O)OC(C(=O)O)C(O)[C@@H]2O)cc1 (stereo partly specified) | 4 | 8 | 8 | 1 | 2 (≈ 1.09 µM) |  | MIC [1]: > 128 µg/mL; MIC [2]: 4 µg/mL; MIC [3]: 1 µg/mL
2 | CCCCC(CC)Oc1ccc(CNC2[C@H](Oc3c4cc5cc3Oc3ccc(cc3Cl)[C@@H](O)C3NC(=O)[C@H](NC(=O)[C@@H]5NC(=O)[C@H]5NC(=O)[C@@H](Cc6ccc(cc6)O4)NC(=O)[C@H](NC)c4ccc(O)c(c4)Oc4cc(O)c(Cl)c5c4)c4ccc(O)c(c4)-c4c(O[C@H]5O[C@H](CO)[C@@H](O)[C@H](O)[C@@H]5O)cc(O)cc4[C@@H](C(=O)NCCCN(C)C)NC3=O)OC(C(=O)NCCCN(C)C)C(O)[C@@H]2O)cc1 (stereo partly specified) | < 0.125 | 4 |  | < 0.125 |  | < 0.125 | MIC [9]: < 0.125 µg/mL; MIC [10]: < 16 µg/mL; MIC [11]: 16 µg/mL
3 | CCCCCCC(CCCC)CNC1[C@H](Oc2c3cc4cc2Oc2ccc(cc2Cl)[C@@H](O)C2NC(=O)[C@H](NC(=O)[C@@H]4NC(=O)[C@H]4NC(=O)[C@@H](Cc5ccc(cc5)O3)NC(=O)[C@H](NC)c3ccc(O)c(c3)Oc3cc(O)c(Cl)c4c3)c3ccc(O)c(c3)-c3c(O[C@H]4O[C@H](CO)[C@@H](O)[C@H](O)[C@@H]4O)cc(O)cc3[C@@H](C(=O)O)NC2=O)OC(C(=O)O)C(O)[C@@H]1O (stereo partly specified) | 2 | 32 | 32 | 1 | 2 (≈ 1.16 µM) | 4 (≈ 2.33 µM) | MIC [13]: ≤ 0.125 µg/mL; MIC [14]: > 128 µg/mL; MIC [15]: > 128 µg/mL
4 | CCCCn1cc(CNC2[C@H](Oc3c4cc5cc3Oc3ccc(cc3Cl)[C@@H](O)C3NC(=O)[C@H](NC(=O)[C@@H]5NC(=O)[C@H]5NC(=O)[C@@H](Cc6ccc(cc6)O4)NC(=O)[C@H](N(C)Cc4cn(CCCC)c6ccccc46)c4ccc(O)c(c4)Oc4cc(O)c(Cl)c5c4)c4ccc(O)c(c4)-c4c(O[C@H]5O[C@H](CO)[C@@H](O)[C@H](O)[C@@H]5O)cc(O)cc4[C@@H](C(=O)NCCCN(C)C)NC3=O)OC(C(=O)NCCCN(C)C)C(O)[C@@H]2O)c2ccccc21 (stereo partly specified) | 0.25 | 0.25 | 2 | 0.125 | 2 (≈ 0.957 µM) | 0.5 (≈ 0.239 µM) | MIC [16]: < 0.5 µg/mL; MIC [17]: 128 µg/mL; MIC [18]: 128 µg/mL (≈ 61.3 µM)
5 | CCCCCCOc1ccc(CNC2[C@H](Oc3c4cc5cc3Oc3ccc(cc3Cl)[C@@H](O)C3NC(=O)[C@H](NC(=O)[C@@H]5NC(=O)[C@H]5NC(=O)[C@@H](Cc6ccc(cc6)O4)NC(=O)[C@H](NC)c4ccc(O)c(c4)Oc4cc(O)c(Cl)c5c4)c4ccc(O)c(c4)-c4c(O[C@H]5O[C@H](CO)[C@@H](O)[C@H](O)[C@@H]5O)cc(O)cc4[C@@H](C(=O)NCCCN(C)C)NC3=O)OC(C(=O)NCCCN(C)C)C(O)[C@@H]2O)cc1OCC (stereo partly specified) | < 0.125 | 2 |  | < 0.125 |  | < 0.125 | MIC [19]: < 0.125 µg/mL; MIC [20]: < 16 µg/mL; MIC [11]: > 16 µg/mL
6 | CCCCOc1ccc(CNC2[C@H](Oc3c4cc5cc3Oc3ccc(cc3Cl)[C@@H](O)C3NC(=O)[C@H](NC(=O)[C@@H]5NC(=O)[C@H]5NC(=O)[C@@H](Cc6ccc(cc6)O4)NC(=O)[C@H](N(C)Cc4ccc(OCCCC)cc4)c4ccc(O)c(c4)Oc4cc(O)c(Cl)c5c4)c4ccc(O)c(c4)-c4c(O[C@H]5O[C@H](CO)[C@@H](O)[C@H](O)[C@@H]5O)cc(O)cc4[C@@H](C(=O)NCCCN(C)C)NC3=O)OC(C(=O)NCCCN(C)C)C(O)[C@@H]2O)cc1 (stereo partly specified) | < 0.125 | 1 | 0.5 | 0.125 | 1 (≈ 0.489 µM) | 0.25 (≈ 0.122 µM) | MIC [21]: > 16 µg/mL; MIC [22]: < 0.125 µg/mL; MIC [23]: 8 µg/mL (≈ 3.92 µM)
7 | CCCCCCCCCCc1ccc(CNC2[C@H](Oc3c4cc5cc3Oc3ccc(cc3Cl)[C@@H](O)C3NC(=O)[C@H](NC(=O)[C@@H]5NC(=O)[C@H]5NC(=O)[C@@H](Cc6ccc(cc6)O4)NC(=O)[C@H](NC)c4ccc(O)c(c4)Oc4cc(O)c(Cl)c5c4)c4ccc(O)c(c4)-c4c(O[C@H]5O[C@H](CO)[C@@H](O)[C@H](O)[C@@H]5O)cc(O)cc4[C@@H](C(=O)O)NC3=O)OC(C(=O)O)C(O)[C@@H]2O)cc1 (stereo partly specified) | 32 | 32 |  | 0.5 | 2 (≈ 1.12 µM) | 4 (≈ 2.25 µM) | MIC [24]: > 64 µg/mL; MIC [25]: 0.125 µg/mL
8 | CCCCOc1ccc(CNC2[C@H](Oc3c4cc5cc3Oc3ccc(cc3Cl)[C@@H](O)C3NC(=O)[C@H](NC(=O)[C@@H]5NC(=O)[C@H]5NC(=O)[C@@H](Cc6ccc(cc6)O4)NC(=O)[C@H](N(C)Cc4ccc(OCCCC)cc4)c4ccc(O)c(c4)Oc4cc(O)c(Cl)c5c4)c4ccc(O)c(c4)-c4c(O[C@H]5O[C@H](CO)[C@@H](O)[C@H](O)[C@@H]5O)cc(O)cc4[C@@H](C(=O)O)NC3=O)OC(C(=O)O)C(O)[C@@H]2O)cc1 (stereo partly specified) | 2 | 32 | 8 |  | 1 (≈ 0.533 µM) |  | MIC [26]: 0.5 µg/mL; MIC [27]: 2 µg/mL; MIC [28]: > 128 µg/mL; MIC [29]: 2 µg/mL (≈ 1.07 µM); MIC [30]: 8 µg/mL (≈ 4.27 µM)
9 | CCCCOc1ccc(CN(C)[C@H]2C(=O)N[C@@H]3Cc4ccc(cc4)Oc4cc5cc(c4O[C@@H]4OC(C(=O)O)C(O)[C@H](O)C4N)Oc4ccc(cc4Cl)[C@@H](O)C4NC(=O)[C@H](NC(=O)[C@@H]5NC(=O)[C@@H](NC3=O)c3cc(cc(O)c3Cl)Oc3cc2ccc3O)c2ccc(O)c(c2)-c2c(O[C@H]3O[C@H](CO)[C@@H](O)[C@H](O)[C@@H]3O)cc(O)cc2[C@@H](C(=O)O)NC4=O)cc1 (stereo partly specified) | 32 | > 128 | 128 | 2 | 2 (≈ 1.17 µM) | 4 (≈ 2.34 µM) | MIC [31]: > 128 µg/mL; MIC [32]: 2 µg/mL; MIC [33]: 128 µg/mL
10 | CCCCCCOc1ccc(CNC2[C@H](Oc3c4cc5cc3Oc3ccc(cc3Cl)[C@@H](O)C3NC(=O)[C@H](NC(=O)[C@@H]5NC(=O)[C@H]5NC(=O)[C@@H](Cc6ccc(cc6)O4)NC(=O)[C@H](NC)c4ccc(O)c(c4)Oc4cc(O)c(Cl)c5c4)c4ccc(O)c(c4)-c4c(O[C@H]5O[C@H](CO)[C@@H](O)[C@H](O)[C@@H]5O)cc(O)cc4[C@@H](C(=O)NCCCN(C)C)NC3=O)OC(C(=O)NCCCN(C)C)C(O)[C@@H]2O)cc1 (stereo partly specified) | < 0.125 | 16 |  | < 0.125 |  | > 0.125 | MIC [34]: > 16 µg/mL; MIC [20]: 16 µg/mL; MIC [22]: < 0.125 µg/mL
